In patent publication US8143212B2 (Vicuron Pharmaceuticals Inc., priority 2002, dated 2012):

How the values were obtained:
Rat mass balance study = details: rats
Protocol: Excreta and more than 40 different tissues were collected through 70 days post-administration, and the tissue distribution and pharmacokinetics of drug-derived radioactivity were determined.
Following dose administration, urine and feces were collected at 24 hour intervals to 14, 36, and 70 days after the dose (3 rats/final collection time). Water and methanol cage washes were also collected. Carcasses were analyzed at the end of the collection period. All samples were analyzed for total radioactivity content by liquid scintillation counting (LSC).

S. pneumoniae = assay: Murine thigh-infection model (time kill, dosing regimen, PK/PD, neutrophils; Tables 31-33); format: in vivo, mice; details: for 1 log kill mg/kg / 2 log kill mg/kg: total dose over 6 days
Protocol: Each point represents the mean of 4 thighs. Five dose levels, ranging 16-fold were used.
Five different doses (two-fold increases) were used. […] Each point represents the mean of 4 thighs.
Each point represents the mean of four thighs.
Each point represents the mean value from 4 thighs. The static dose, and the doses associated with a 1 and 2 log kill were calculated from the parameters estimated by non-linear regression using the Hill equation.

P aeruginosas = assay: MIC, microbiological activity (Table 3); format: cell-based; details: L 4 P aeruginosas ATCC10145; read-out: MIC
P vulgaris = assay: MIC, microbiological activity (Table 3); format: cell-based; details: L 79 P vulgaris; read-out: MIC
in vitro = format: cell-based, S. aureus; details: mouse, serum
Text: This degree of binding was considered in subsequent pharmacodynamic analyses. The degree of binding in human serum would be estimated to be 96%.

[1] = Mean ± SD of S. pneumoniae strains, q 24 h regimen
[2] = Mean ± SD of S. pneumoniae strains, q 72 h regimen

CN[C@H]1C(=O)N[C@@H]2Cc3ccc(cc3)Oc3cc4cc(c3O[C@@H]3O[C@H](C(=O)O)[C@@H](O)[C@H](O)[C@H]3NC(=O)CCCCCCCCC(C)C)Oc3ccc(cc3Cl)[C@@H](O)[C@@H]3NC(=O)[C@H](NC(=O)[C@@H]4NC(=O)[C@@H](NC2=O)c2cc(cc(O)c2Cl)Oc2cc1ccc2O)c1ccc(O)c(c1)-c1c(O[C@H]2O[C@H](CO)[C@@H](O)[C@H](O)[C@@H]2O)cc(O)cc1[C@@H](C(=O)NCCCN(C)C)NC3=O [Dalbavancin]
plasma t1/2 (Rat mass balance study): approximately 1 week
1 Log Kill f24AUC/MIC (S. pneumoniae; [1]): 21 ± 7.4
1 Log Kill mg/kg/24 h (S. pneumoniae; [1]): 1.1 ± 0.47 mg/kg/24 h
2 Log Kill f24AUC/MIC (S. pneumoniae; [1]): 24.3 ± 8.2
2 Log Kill mg/kg/24 h (S. pneumoniae; [1]): 1.23 ± 0.52 mg/kg/24 h
Static Effect f24AUC/MIC (S. pneumoniae; [1]): 17.6 ± 6.9
Static Effect mg/kg/24 h (S. pneumoniae; [1]): 0.91 ± 0.44 mg/kg/24 h
1 Log Kill f24AUC/MIC (S. pneumoniae; [2]): 9.0 ± 5.8
1 Log Kill mg/kg/24 h (S. pneumoniae; [2]): 0.93 ± 0.24 mg/kg/24 h
2 Log Kill f24AUC/MIC (S. pneumoniae; [2]): 16.6 ± 12.3
2 Log Kill mg/kg/24 h (S. pneumoniae; [2]): 1.13 ± 0.36 mg/kg/24 h
Static Effect f24AUC/MIC (S. pneumoniae; [2]): 7.2 ± 4.5
Static Effect mg/kg/72 h (S. pneumoniae; [2]): 0.77 ± 0.18 mg/kg/72 h
1 Log Kill f24AUC/MIC (S. pneumoniae; SP1199, q 24 h regimen): 19.4
1 Log Kill mg/kg/24 h (S. pneumoniae; SP1199, q 24 h regimen): 0.49 mg/kg/24 h
2 Log Kill f24AUC/MIC (S. pneumoniae; SP1199, q 24 h regimen): 22.7
2 Log Kill mg/kg/24 h (S. pneumoniae; SP1199, q 24 h regimen): 0.57 mg/kg/24 h
Static Effect f24AUC/MIC (S. pneumoniae; SP1199, q 24 h regimen): 16.0
Static Effect mg/kg/24 h (S. pneumoniae; SP1199, q 24 h regimen): 0.40 mg/kg/24 h
1 Log Kill f24AUC/MIC (S. pneumoniae; SP1199, q 72 h regimen): 12.1
1 Log Kill mg/kg/24 h (S. pneumoniae; SP1199, q 72 h regimen): 0.85 mg/kg/24 h
2 Log Kill f24AUC/MIC (S. pneumoniae; SP1199, q 72 h regimen): 35.3
2 Log Kill mg/kg/24 h (S. pneumoniae; SP1199, q 72 h regimen): 0.99 mg/kg/24 h
Static Effect f24AUC/MIC (S. pneumoniae; SP1199, q 72 h regimen): 10.3
Static Effect mg/kg/72 h (S. pneumoniae; SP1199, q 72 h regimen): 0.72 mg/kg/72 h
1 Log Kill f24AUC/MIC (S. pneumoniae; SP1293, q 24 h regimen): 21.7
1 Log Kill mg/kg/24 h (S. pneumoniae; SP1293, q 24 h regimen): 0.55 mg/kg/24 h
2 Log Kill f24AUC/MIC (S. pneumoniae; SP1293, q 24 h regimen): 25.9
2 Log Kill mg/kg/24 h (S. pneumoniae; SP1293, q 24 h regimen): 0.65 mg/kg/24 h
Static Effect f24AUC/MIC (S. pneumoniae; SP1293, q 24 h regimen): 17.4
Static Effect mg/kg/24 h (S. pneumoniae; SP1293, q 24 h regimen): 0.44 mg/kg/24 h
1 Log Kill f24AUC/MIC (S. pneumoniae; SP1293, q 72 h regimen): 18
1 Log Kill mg/kg/24 h (S. pneumoniae; SP1293, q 72 h regimen): 1.28 mg/kg/24 h
2 Log Kill f24AUC/MIC (S. pneumoniae; SP1293, q 72 h regimen): 23.8
2 Log Kill mg/kg/24 h (S. pneumoniae; SP1293, q 72 h regimen): 1.68 mg/kg/24 h
Static Effect f24AUC/MIC (S. pneumoniae; SP1293, q 72 h regimen): 14.1
Static Effect mg/kg/72 h (S. pneumoniae; SP1293, q 72 h regimen): 1.01 mg/kg/72 h
1 Log Kill f24AUC/MIC (S. pneumoniae; SP1325, q 24 h regimen): 31.8
1 Log Kill mg/kg/24 h (S. pneumoniae; SP1325, q 24 h regimen): 1.6 mg/kg/24 h
2 Log Kill f24AUC/MIC (S. pneumoniae; SP1325, q 24 h regimen): 34.5
2 Log Kill mg/kg/24 h (S. pneumoniae; SP1325, q 24 h regimen): 1.73 mg/kg/24 h
Static Effect f24AUC/MIC (S. pneumoniae; SP1325, q 24 h regimen): 29.0
Static Effect mg/kg/24 h (S. pneumoniae; SP1325, q 24 h regimen): 1.46 mg/kg/24 h
1 Log Kill f24AUC/MIC (S. pneumoniae; SP1325, q 72 h regimen): 8.8
1 Log Kill mg/kg/24 h (S. pneumoniae; SP1325, q 72 h regimen): 0.99 mg/kg/24 h
2 Log Kill f24AUC/MIC (S. pneumoniae; SP1325, q 72 h regimen): 17.6
2 Log Kill mg/kg/24 h (S. pneumoniae; SP1325, q 72 h regimen): 1.16 mg/kg/24 h
Static Effect f24AUC/MIC (S. pneumoniae; SP1325, q 72 h regimen): 6.0
Static Effect mg/kg/72 h (S. pneumoniae; SP1325, q 72 h regimen): 0.83 mg/kg/72 h
1 Log Kill f24AUC/MIC (S. pneumoniae; SP1329, q 24 h regimen): 23.5
1 Log Kill mg/kg/24 h (S. pneumoniae; SP1329, q 24 h regimen): 1.18 mg/kg/24 h
2 Log Kill f24AUC/MIC (S. pneumoniae; SP1329, q 24 h regimen): 26.7
2 Log Kill mg/kg/24 h (S. pneumoniae; SP1329, q 24 h regimen): 1.45 mg/kg/24 h
Static Effect f24AUC/MIC (S. pneumoniae; SP1329, q 24 h regimen): 18.0
Static Effect mg/kg/24 h (S. pneumoniae; SP1329, q 24 h regimen): 0.90 mg/kg/24 h
1 Log Kill f24AUC/MIC (S. pneumoniae; SP1396, q 72 h regimen): 4.3
1 Log Kill mg/kg/24 h (S. pneumoniae; SP1396, q 72 h regimen): 0.61 mg/kg/24 h
2 Log Kill f24AUC/MIC (S. pneumoniae; SP1396, q 72 h regimen): 4.8
2 Log Kill mg/kg/24 h (S. pneumoniae; SP1396, q 72 h regimen): 0.69 mg/kg/24 h
Static Effect f24AUC/MIC (S. pneumoniae; SP1396, q 72 h regimen): 4.0
Static Effect mg/kg/72 h (S. pneumoniae; SP1396, q 72 h regimen): 0.52 mg/kg/72 h
1 log kill mg/kg (S. pneumoniae; SP10813, q 12 h): 2.8 mg/kg
2 log kill mg/kg (S. pneumoniae; SP10813, q 12 h): 3.5 mg/kg
1 log kill mg/kg (S. pneumoniae; SP10813, q 24 h): 1.54 mg/kg
2 log kill mg/kg (S. pneumoniae; SP10813, q 24 h): 1.75 mg/kg
1 Log Kill f24AUC/MIC (S. pneumoniae; SP10813, q 24 h regimen): 8.7
1 Log Kill mg/kg/24 h (S. pneumoniae; SP10813, q 24 h regimen): 1.54 mg/kg/24 h
2 Log Kill f24AUC/MIC (S. pneumoniae; SP10813, q 24 h regimen): 9.9
2 Log Kill mg/kg/24 h (S. pneumoniae; SP10813, q 24 h regimen): 1.75 mg/kg/24 h
Static Effect f24AUC/MIC (S. pneumoniae; SP10813, q 24 h regimen): 7.5
Static Effect mg/kg/24 h (S. pneumoniae; SP10813, q 24 h regimen): 1.34 mg/kg/24 h
1 log kill mg/kg (S. pneumoniae; SP10813, q 36 h): 1.53 mg/kg
2 log kill mg/kg (S. pneumoniae; SP10813, q 36 h): 1.81 mg/kg
1 log kill mg/kg (S. pneumoniae; SP10813, q 72 h): 0.77 mg/kg
2 log kill mg/kg (S. pneumoniae; SP10813, q 72 h): 0.82 mg/kg
1 Log Kill f24AUC/MIC (S. pneumoniae; SP10813, q 72 h regimen): 1.6
1 Log Kill mg/kg/24 h (S. pneumoniae; SP10813, q 72 h regimen): 0.77 mg/kg/24 h
2 Log Kill f24AUC/MIC (S. pneumoniae; SP10813, q 72 h regimen): 1.6
2 Log Kill mg/kg/24 h (S. pneumoniae; SP10813, q 72 h regimen): 0.82 mg/kg/24 h
Static Effect f24AUC/MIC (S. pneumoniae; SP10813, q 72 h regimen): 1.4
Static Effect mg/kg/72 h (S. pneumoniae; SP10813, q 72 h regimen): 0.71 mg/kg/72 h
drop in cfu (S. pneumoniae; all strains, 6 day study): > 4 log10
free drug 24 h AUC/MIC associated with a static effect (S. pneumoniae; every 24 h dosing): 17.6±6.9
free drug AUC/MIC required for efficacy (S. pneumoniae; over the 6 days of therapy, net static effect, 1 or 2 log kill): ~100
extent of killing (S. pneumoniae; single doses, highest doses studied): > 2 log
MIC (P aeruginosas): > 32 µg/mL
MIC (P vulgaris): > 32 µg/mL
fraction unbound (in vitro): 0.004
